For data set [1], the system named is Plasmodium falciparum. Kind of data set: Antimalarial activity against asexual blood stage Plasmodium falciparum infected in RBC measured after 72 hrs by LDH release assay. Format: functional, organism-based. The conditions noted are these: Erythrocyte. On the technique in general: LDH leaks from cells whose membrane has failed.
Another data set deals with Plasmepsin X (Plasmodium falciparum (isolate 3D7), UniProt Q8IAS0). Kind of data set: Inhibition of Plasmodium falciparum 3D7 HA-glms-tagged PMX using DABCYL-HSFIQEGKEE-EDANS as substrate measured after 2 hrs by FRET assay.
The target in another data set is T1, Plasmepsin IX (Plasmodium falciparum, UniProt Q8ILG2).
T1 sequence (Q8ILG2 whole entry): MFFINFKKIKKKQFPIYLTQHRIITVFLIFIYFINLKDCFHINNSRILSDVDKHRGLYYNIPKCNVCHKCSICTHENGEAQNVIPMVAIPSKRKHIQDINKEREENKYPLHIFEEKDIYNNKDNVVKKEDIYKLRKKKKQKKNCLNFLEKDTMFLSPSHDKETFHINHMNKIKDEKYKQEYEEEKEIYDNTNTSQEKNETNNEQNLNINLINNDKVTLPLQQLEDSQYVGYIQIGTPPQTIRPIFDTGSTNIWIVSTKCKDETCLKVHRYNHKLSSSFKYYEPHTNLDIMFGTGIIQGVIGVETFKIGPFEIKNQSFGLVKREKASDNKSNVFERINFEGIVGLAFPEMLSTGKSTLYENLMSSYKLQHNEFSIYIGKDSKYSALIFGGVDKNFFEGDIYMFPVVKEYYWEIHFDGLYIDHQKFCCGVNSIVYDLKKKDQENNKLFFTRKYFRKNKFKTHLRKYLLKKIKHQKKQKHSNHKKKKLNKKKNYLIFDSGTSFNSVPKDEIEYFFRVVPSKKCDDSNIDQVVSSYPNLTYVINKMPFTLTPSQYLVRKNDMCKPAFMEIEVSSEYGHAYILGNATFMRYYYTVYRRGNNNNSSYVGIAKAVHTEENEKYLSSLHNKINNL
Nature of the data set: Inhibition of Plasmodium falciparum 3D7 HA-glms-tagged PMIX using DABCYL-HSFIQEGKEE-EDANS as substrate measured after 2 hrs by FRET assay.

A short description of data set [2]: Lipophilicity, log D of compound at pH 7.4. Format: physicochemical. The conditions noted are these: buffer.
Data set [3] in a line: Kinetic solubility of the compound. The conditions noted are these: read-out: Kinetic_solubility. Format: physicochemical.
Data set [4] can be described thus: Apparent permeability across apical to basolateral side in MDCK cells. Format: ADME, cell-based, Canis lupus familiaris. The conditions noted are these: dog.
Data set [5] can be described thus: Mean residence time in rat. The conditions noted are these: in vivo. Format: ADME.
Data set [6] in a line: Plasma clearance in rat. Format: ADME.
A short description of data set [7]: Unbound clearance in rat. Format: ADME. The conditions noted are these: in vivo.
Data set [8] in a line: Volume of distribution in rat. Format: ADME. The conditions noted are these: in vivo.
A short description of data set [9]: Unbound volume of distribution in rat. Format: ADME. The conditions noted are these: in vivo.
The nature of data set [10]: Oral bioavailability in rat. Format: ADME, organism-based. The conditions noted are these: in vivo.
Data set [11] is described as follows: Protein binding in rat plasma. Format: ADME, cell-free. The conditions noted are these: read-out: PPB (converted).
Data set [12] can be described thus: Mean residence time in mouse. Format: ADME, organism-based. The conditions noted are these: in vivo.
A short description of data set [13]: Plasma clearance in mouse. Format: ADME, organism-based.
The nature of data set [14]: Unbound plasma clearance in mouse. Format: ADME, organism-based. The conditions noted are these: in vivo.
Data set [15] can be described thus: Volume of distribution in mouse. Format: ADME, organism-based. The conditions noted are these: in vivo.
Data set [16] can be described thus: Unbound volume of distribution in mouse. Format: ADME, organism-based. The conditions noted are these: in vivo.
A short description of data set [17]: Oral bioavailability in mouse. Format: ADME, organism-based. The conditions noted are these: in vivo.
Data set [18] in a line: Protein binding in mouse plasma. Format: ADME, cell-free. The conditions noted are these: read-out: PPB (converted).
Data set [19] concerns the target Plasmepsin X (Plasmodium falciparum (isolate 3D7)) (UniProt Q8IAS0). Nature of the data set: Inhibition of Plasmodium falciparum 3D7 HA-glms-tagged PMX at 10 nM using DABCYL-HSFIQEGKEE-EDANS as substrate measured after 2 hrs by FRET assay relative to control.
The target in data set [20] is T2, Plasmepsin IX (Plasmodium falciparum) (UniProt Q8ILG2).
T2 sequence (whole entry): T1 sequence (Q8ILG2 whole entry)
Kind of data set: Inhibition of Plasmodium falciparum 3D7 HA-glms-tagged PMIX at 10 nM using DABCYL-HSFIQEGKEE-EDANS as substrate measured after 2 hrs by FRET assay relative to control.

The subject of data set [21] is Plasmodium falciparum. Kind of data set: Antimalarial activity Plasmodium falciparum Dd2 assessed as EC90 fold pressure measured up to 62 days by microscopy. Format: functional. The conditions noted are these: Dd2, 1488 h, time <= 62 day.
Data set [22] relates to Plasmodium falciparum. Nature of the data set: Antimalarial activity Plasmodium falciparum Dd2 assessed as minimum inoculum for resistance measured up to 62 days by microscopy. Format: functional. The conditions noted are these: time <= 62 day.

≈ marks a conversion by molar mass, not a printed value.

For orientation: EC50 means the concentration at which the effect is half-maximal. By IC50 is commonly meant the concentration needed to halve the response being measured. For orientation: logD means the decadic logarithm of the distribution of all forms, ionised or not, between an organic phase and buffer at a given pH. What is called Papp A→B is how fast a substance crosses the layer from the apical side. The term MRT denotes the average time that molecules of a dose stay in the body. By clearance is commonly meant the rate of elimination divided by the concentration. Low values mean a low capacity for elimination, high ones a high capacity for elimination. As a reminder, the Vd is the apparent volume that relates the amount in the body to the concentration in plasma or blood. Lower therefore signals little distribution into tissue. For orientation: bioavailability means dose-corrected exposure relative to a reference, in per cent. Higher therefore signals much systemic uptake. For orientation: inhibition means the percentage by which the read-out fell short of the control. A lower inhibition goes with a weak effect. Usually EC90 stands for the concentration needed for an effect of 90%.

Sequence of Plasmepsin X (Q8IAS0 whole entry): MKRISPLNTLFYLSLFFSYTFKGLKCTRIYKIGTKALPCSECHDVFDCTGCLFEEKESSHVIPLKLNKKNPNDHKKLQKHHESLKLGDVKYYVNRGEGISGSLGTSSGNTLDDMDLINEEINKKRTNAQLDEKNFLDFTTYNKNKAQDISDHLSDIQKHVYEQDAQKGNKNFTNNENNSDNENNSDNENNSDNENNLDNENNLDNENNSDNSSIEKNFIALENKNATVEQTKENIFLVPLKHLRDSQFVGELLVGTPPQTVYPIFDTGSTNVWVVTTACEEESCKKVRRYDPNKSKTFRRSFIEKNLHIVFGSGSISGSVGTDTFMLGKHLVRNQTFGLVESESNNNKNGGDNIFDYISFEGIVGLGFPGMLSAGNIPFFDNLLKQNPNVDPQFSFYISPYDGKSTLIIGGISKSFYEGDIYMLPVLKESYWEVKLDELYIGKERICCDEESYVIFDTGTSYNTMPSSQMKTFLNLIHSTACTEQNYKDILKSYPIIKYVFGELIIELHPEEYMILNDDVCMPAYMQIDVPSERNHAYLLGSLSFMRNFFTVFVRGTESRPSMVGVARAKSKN
Sequence of Plasmepsin X (Plasmodium falciparum (isolate 3D7)) (Q8IAS0 whole entry): as above

In the data set with Plasmodium falciparum [1], `CC(C)C[C@H](c1ccc(C(F)(F)F)c(C(=O)N2Cc3nccnc3C2)c1)N1C(=N)N[C@](CC2CC2)(c2ccccc2)CC1=O` returned an EC50 of 10 nM. For the same compound, on Plasmepsin X, half-maximal inhibition (IC50) was put at 5.7 nM.

Compound `CCC1(CC)CC(=O)N([C@@H]2CCOc3ccc(C(=O)NC4CCOc5ccccc54)cc32)C(=N)N1` (single isomer, unassigned) displayed an EC50 with Plasmodium falciparum [1] of 2.5 nM. Besides, the values for the IC50 on Plasmepsin X and on Plasmepsin IX were 0.07 nM and 2.2 nM, respectively. Besides, the logD in [2] is 2.1. Moreover, the solubility kinetic in data set [3] was found to be 0.2 µM (≈ 0.0953 µg/mL). Further, the Papp A→B in data set [4] came to 8.8 ×10⁻⁶ cm/s. Moreover, the MRT in data set [5] amounted to 2.7 h; in [12], 1.3 h. For the same compound, the clearance in [6] was 79 mL/min/kg; in [13], 68 mL/min/kg. Besides, the CL free came to 518 mL/min/kg in data set [7] and 1278 mL/min/kg in data set [14]. Moreover, the figures for the Vd in data set [8] and in data set [15] were 12 L/kg and 5.4 L/kg, respectively. For the same compound, the Vdu amounted to 80 L/kg in data set [9] and 102 L/kg in [16]. Also, the bioavailability is 27% in [10] and 4% in data set [17]. The figures for the fraction unbound in [11] and in data set [18] were 0.152 and 0.053, respectively.

For `CCC[C@H](c1cccc(C(=O)N[C@H]2CCOc3ccccc32)c1)N1C(=N)NC(CC)(CC)CC1=O`, the EC50 in the data set with Plasmodium falciparum [1] came out at 0.4 nM. The values for the IC50 on Plasmepsin X and at Plasmepsin IX were 0.06 nM and 4.5 nM, respectively. For the same compound, the logD in data set [2] was found to be 2.9. Moreover, in [3], the solubility kinetic is 0.2 µM (≈ 0.0953 µg/mL). Moreover, the Papp A→B in data set [4] amounted to 16.3 ×10⁻⁶ cm/s. The MRT in [5] and in data set [12] was 1.1 h each time. Moreover, the clearance is 103 mL/min/kg in [6] and 36 mL/min/kg in data set [13]. In addition, the CL free in data set [7] amounted to 5648 mL/min/kg; in data set [14] it was 3148 mL/min/kg. The Vd was determined as 6.7 L/kg in data set [8] and 2.3 L/kg in [15]. Further, the figures for the Vdu in data set [9] and in [16] were 340 L/kg and 204 L/kg, respectively. Further, the figures for the bioavailability in data set [10] and in data set [17] were 6% and 14%, respectively. The fraction unbound in data set [11] is 0.02; in data set [18] it was 0.011.

In the data set with Plasmodium falciparum [1], `CCC1(CC)CC(=O)N([C@@H]2CCOc3ccc(C(=O)N[C@H]4CCS(=O)(=O)c5ccccc54)cc32)C(=N)N1` registered an EC50 of 18 nM. Besides, the IC50 on Plasmepsin X amounted to 0.3 nM; on Plasmepsin IX it was 24 nM.

In the data set on Plasmodium falciparum [1], `CCC1(CC)CC(=O)N([C@@H]2CCOc3ccc(C(=O)N[C@H]4CCCOc5ccccc54)cc32)C(=N)N1` displayed an EC50 of 2.8 nM. For the same compound, the IC50 at Plasmepsin X was 0.6 nM; against Plasmepsin IX, 68 nM.

As for `CCC1(CC)CC(=O)N([C@@H]2CCOc3ccc(C(=O)NC4CC(=O)Oc5ccccc54)cc32)C(=N)N1` (mixture of isomers), the midpoint of the response in the data set on Plasmodium falciparum [1], the EC50, lay at 220 nM. Further, the results for the inhibition in data set [19] and in data set [20] were 40% and 12%, respectively.

`CC(C)[C@]1(C)CC(=O)N(C(c2ccccc2)c2cccc(C(=O)N[C@@H](C)c3ccccc3)c2)C(=N)N1` (some centres undefined) yielded an EC50 with Plasmodium falciparum [1] of 6.2 nM. Moreover, in the data set on Plasmodium falciparum [21], the EC90 worked out at 80 nM. Besides, in the data set on Plasmodium falciparum [22], the Activity is over 9.

As for `CCC1(CC)CC(=O)N([C@@H]2CCOc3ccc(C(=O)N[C@@H]4c5ccccc5OC4(C)C)cc32)C(=N)N1`, a half-maximal effect with Plasmodium falciparum [1] (EC50) was put at 1.4 nM. The figures for the IC50 at Plasmepsin X and on Plasmepsin IX were 0.4 nM and 12 nM, respectively.

Take `CCC1(CC)CC(=O)N(Cc2cc(C(=O)N[C@H]3CCOc4ccccc43)ccn2)C(=N)N1`: in the data set with Plasmodium falciparum [1], the EC50 is 12 nM.

In the data set with Plasmodium falciparum [1], `CCC1(CC)CC(=O)N([C@@H](c2ccccc2)c2cccc(C(=O)N[C@@H](C)c3ccccc3)c2)C(=N)N1` registered an EC50 of 830 nM.

In turn, `CCC1(CC)CC(=O)N([C@@H]2CCOc3ccc(C(=O)N[C@H]4CC(C)(C)Oc5ccccc54)cc32)C(=N)N1` registered an EC50 in the data set with Plasmodium falciparum [1] of 0.4 nM. The IC50 against Plasmepsin X turned out to be 0.03 nM; against Plasmepsin IX, 1.4 nM. Besides, the logD in [2] is 2.5. The solubility kinetic in data set [3] turned out to be 0.1 µM (≈ 0.0505 µg/mL). The MRT in [5] was found to be 3.7 h; in [12], 2.5 h. Moreover, the clearance in data set [6] and in [13] was 42 mL/min/kg throughout. In addition, the CL free was 1022 mL/min/kg in data set [7] and 774 mL/min/kg in data set [14]. The distribution volume (Vd) in data set [8] stood at 9.4 L/kg. Further, the values for the Vdu in data set [9] and in data set [16] were 222 L/kg and 120 L/kg, respectively. Also, the bioavailability in data set [10] came to 8%. Also, the EC90 in the data set with Plasmodium falciparum [21] amounted to 1.5 nM. Moreover, the Activity in the data set on Plasmodium falciparum [22] is reported as over 9.

In turn, `CC(C)[C@]1(C)CC(=O)N(Cc2cccc(C(=O)N3Cc4ccccc4C3)c2)C(=N)N1` gave an EC50 in the data set with Plasmodium falciparum [1] of over 1000 nM.

In the data set on Plasmodium falciparum [1], `CCC1(CC)CC(=O)N([C@H](c2ccccc2)c2cccc(C(=O)N[C@@H](C)c3ccccc3)c2)C(=N)N1` registered an EC50 of 1 nM.

`CC(C)C[C@@H](c1ccc(C(F)(F)F)c(C(=O)N2Cc3nccnc3C2)c1)N1C(=N)N[C@](CC2CC2)(c2ccccc2)CC1=O` displayed an EC50 in the data set on Plasmodium falciparum [1] of 690 nM.

For the compound `CC(C)[C@]1(C)CC(=O)N(Cc2cccc(C(=O)N[C@@H](C)c3ccccc3)c2)C(=N)N1`, the EC50 in the data set with Plasmodium falciparum [1] was determined as 308 nM.

Turning to `CCNC(=O)c1cccc(CN2C(=N)N[C@](C)(C(C)C)CC2=O)c1`, the EC50 in the data set on Plasmodium falciparum [1] was over 1000 nM.

Regarding `CC(C)[C@]1(C)CC(=O)N([C@H](c2ccccc2)c2cccc(C(=O)N[C@@H](C)c3ccccc3)c2)C(=N)N1`, the EC50 with Plasmodium falciparum [1] stood at 4.6 nM. For the same compound, the IC50 at Plasmepsin X turned out to be 1.9 nM.

With `CCC1(CC)CC(=O)N(Cc2cccc(C(=O)N[C@H]3CCOc4ccccc43)n2)C(=N)N1`, the EC50 with Plasmodium falciparum [1] stood at 110 nM.

The record behind these values is ChEMBL document CHEMBL5126668, “The Invention of WM382, a Highly Potent PMIX/X Dual Inhibitor toward the Treatment of Malaria” (ACS Med Chem Lett, 2022).
